Experimental data from patent publication US10995083B2, “Cocrystal of 2-(6-methyl-pyridine-2-yl)-3-yl-[6-amide-quinoline-4-yl]-5,6-dihydro-4H-pyrrole[1,2-b]pyrazole, preparation method therefor, and pharmaceutical composition” (Hangzhou SoliPharma Co., Ltd., priority 2017, dated 2021).
Where a name gives a salt, the structure may show the parent alone.

Key:
[1] = apparent water solubility test; format: physicochemical; conditions: for Solubility: apparent water solubility, 25° C.±2° C., clarity observed by naked eye, 5 mg sample, max 100 mL water; for apparent water solubility: as shown in Comparative Example 1
Procedure: Accurately weighed 5 mg samples in a 200 mL flask which was in a water bath with temperature 25° C.±2° C., added water in a geometric fashion the flask, stirred (about 200 r/min), and observed by naked eyes to see if it was clear. Water was added every 3 mins, maximum water amount 100 mL.

[2] = storage phase stability of crystalline form at 25° C./60% relative humidity; format: physicochemical; conditions: 6 months of storage at 25° C./60% relative humidity

Solubility [1] [µg/mL]	apparent water solubility [1]	crystalline form after storage (phase stability) [2]	Structure (SMILES)
<50	less than 50 ug/mL	–	Cc1cccc(-c2nn3c(c2-c2ccnc4ccc(C(N)=O)cc24)CCC3)n1 [LY2157299 Monohydrate, 2-(6-methyl-pyridin-2-yl)-3-(6-amido-quinolin-4-yl)-5,6-dihydro-4H-pyrrolo[1,2-b]pyrazole, reference compound]
330	about 330 ug/mL	remained its original crystalline form	Cc1cccc(-c2nn3c(c2-c2ccnc4ccc(C(N)=O)cc24)CCC3)n1 [LY2157299 fumarate cocrystal form, 2-(6-methyl-pyridin-2-yl)-3-(6-amido-quinolin-4-yl)-5,6-dihydro-4H-pyrrolo[1,2-b]pyrazole]
130	about 130 ug/mL	remained its original crystalline form	Cc1cccc(-c2nn3c(c2-c2ccnc4ccc(C(N)=O)cc24)CCC3)n1 [LY2157299 succinate cocrystal form, 2-(6-methyl-pyridin-2-yl)-3-(6-amido-quinolin-4-yl)-5,6-dihydro-4H-pyrrolo[1,2-b]pyrazole]
